Test results taken from US12497394B2, “Fused-cyclic pyrazolone formamide compound and preparation method therefor, pharmaceutical composition and use thereof” (SHANGHAI INSTITUTE OF MATERIA MEDICA, CHINESE ACADEMY OF …, priority 2018, dated 2025).
Like-named read-outs stand apart in the source and are kept apart here.

How the values were obtained:
TYRO3/SKY = TYRO3/SKY (Homo sapiens, UniProt Q06418); assay: Kinase profile screen: TYRO3/SKY; format: biochemical; settings: 50 nM
Excerpt: (§1) Experimental Example 2: Study on the Selectivity of the Kinase Profile of the Compound Due to compound's potent inhibitory activity against AXL, we selected one of the compounds, DC621044, to screen 369 kinase profiles in order to investigate the compound's selectivity to the kinase profile.

TRKA = TRKA (Homo sapiens, UniProt P04629); assay: Kinase profile screen: TRKA; format: biochemical; settings: 50 nM
Excerpt: as §1

MER = MER (Homo sapiens, UniProt Q12866); assay: Kinase profile screen: MER; format: biochemical; settings: 50 nM
Excerpt: as §1

BaF3/TEL-AXL cells = assay: Proliferation of BaF3/TEL-AXL cells; format: cell-based
Excerpt: Experimental Example 4: Effect of the Compound on the Proliferation Effect of BaF3/TEL-AXL Cells
Based on the above-mentioned enzyme activity research results, we further explored the effect of the compound on cell proliferation mediated by receptor tyrosine kinase AXL.

c-Src = c-Src (Homo sapiens, UniProt P12931); assay: Kinase profile screen: c-Src; format: biochemical; settings: 50 nM
Excerpt: as §1

IRR/INSRR = IRR/INSRR (Homo sapiens, UniProt P14616); assay: Kinase profile screen: IRR/INSRR; format: biochemical; settings: 50 nM
Excerpt: as §1

FGR = FGR (Homo sapiens, UniProt P09769); assay: Kinase profile screen: FGR; format: biochemical; settings: 50 nM
Excerpt: as §1

HIPK4 = HIPK4 (Homo sapiens, UniProt Q8NE63); assay: Kinase profile screen: HIPK4; format: biochemical; settings: 50 nM
Excerpt: as §1

AXL = AXL (Homo sapiens, UniProt P30530); assay: Kinase profile screen: AXL; format: biochemical; settings: 50 nM
Excerpt: as §1

[1] = target: T1, receptor tyrosine kinase AXL (Homo sapiens, UniProt P30530); assay: Enzyme activity of receptor tyrosine kinase AXL (ELISA); format: biochemical
T1 construct: 50 μL of AXL kinase domain recombinant protein diluted in reaction buffer was added to start the reaction; made in house; host or cells: insect cells (baculovirus expression system)
T1 sequence (P30530 536-807 limits assumed): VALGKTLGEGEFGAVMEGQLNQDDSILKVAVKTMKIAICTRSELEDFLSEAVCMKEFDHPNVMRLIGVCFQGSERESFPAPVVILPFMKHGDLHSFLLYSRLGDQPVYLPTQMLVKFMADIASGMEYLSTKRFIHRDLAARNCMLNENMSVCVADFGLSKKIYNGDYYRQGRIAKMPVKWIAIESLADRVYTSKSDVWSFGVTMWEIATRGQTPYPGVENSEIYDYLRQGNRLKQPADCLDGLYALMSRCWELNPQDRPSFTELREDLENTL
Procedure: Detection method: Enzyme-linked immunosorbent assay (ELISA)
Tested receptor tyrosine kinase: AXL
The full-wavelength microplate reader for experiment reading was a product of Molecular Device, model: SpectraMax 190; the experiment water was distilled water produced by Sinopharm Group.
Compound preparation: The compounds were centrifuged at 12,000 g for 5 min, and DMSO was added to prepare a 10^−2M stock solution, vortexed evenly and sonicated for 10 min for use, and stored at −40° C. During the test, the compound was diluted from the stock solution to 100 times the tested concentration with DMSO (the DMSO concentration in the system was 1%).
1. […] Discard the liquid from the well. The plate was washed and washed three times with T-PBS (0.1% Tween-20 in potassium-free PBS, 200 μL/well) for 5 minutes each time.
2. 49 μL of ATP solution diluted with reaction buffer (50 mM HEPES pH 7.4, 50 mM MgCl2, 0.5 mM MnCl2, 0.2 mM Na3VO4, 1 mM DTT) was added to each well, and […] of the tested compound was added to each well, and then 50 μL of AXL kinase domain recombinant protein diluted in reaction buffer was added to start the reaction. Two control wells without ATP were added in each experiment. (100 rpm) Reacted in 37° C. shaker for 1 hour. Discard the liquid from the well, and the plate was washed with T-PBS for three times.
3. […] Discard the liquid from the well, and the plate was washed with T-PBS for three times.
4. The horseradish peroxidase-labeled goat anti-mouse second antibody dilution (antibody diluted 1:2000 with BSA 5 mg/mL in T-PBS), 100 μL/well, and reacted in 37° C. shaker for 0.5 hours. Discard the liquid from the well, and the plate was washed with T-PBS for three times.
6. The reaction was quenched with 50 μL/well 2M […], and read at 490 nm using a tunable microplate reader VERSAmax.
The IC50 values were obtained by four-parameter regression analysis using the software supplied with the microplate reader.

c-MET = c-MET (Homo sapiens, UniProt P08581); assay: Kinase profile screen: c-MET; format: biochemical; settings: 50 nM
Excerpt: as §1

TRKB = TRKB (Homo sapiens, UniProt Q16620); assay: Kinase profile screen: TRKB; format: biochemical; settings: 50 nM
Excerpt: as §1

LCK = LCK (Homo sapiens, UniProt P06239); assay: Kinase profile screen: LCK; format: biochemical; settings: 50 nM
Excerpt: as §1

FYN = FYN (Homo sapiens, UniProt P06241); assay: Kinase profile screen: FYN; format: biochemical; settings: 50 nM
Excerpt: as §1

DDR1 = DDR1 (Homo sapiens, UniProt Q08345); assay: Kinase profile screen: DDR1; format: biochemical; settings: 50 nM
Excerpt: as §1

ASK1/MAP3K5 = ASK1/MAP3K5 (Homo sapiens, UniProt Q99683); assay: Kinase profile screen: ASK1/MAP3K5; format: biochemical; settings: 50 nM
Excerpt: as §1

TRKC = TRKC (Homo sapiens, UniProt Q16288); assay: Kinase profile screen: TRKC; format: biochemical; settings: 50 nM
Excerpt: as §1

MLK2/MAP3K10 = MLK2/MAP3K10 (Homo sapiens, UniProt Q02779); assay: Kinase profile screen: MLK2/MAP3K10; format: biochemical; settings: 50 nM
Excerpt: as §1

BRK = BRK (Homo sapiens, UniProt Q13882); assay: Kinase profile screen: BRK; format: biochemical; settings: 50 nM
Excerpt: as §1

Chain of TRKA (P04629 33-796, species assumed): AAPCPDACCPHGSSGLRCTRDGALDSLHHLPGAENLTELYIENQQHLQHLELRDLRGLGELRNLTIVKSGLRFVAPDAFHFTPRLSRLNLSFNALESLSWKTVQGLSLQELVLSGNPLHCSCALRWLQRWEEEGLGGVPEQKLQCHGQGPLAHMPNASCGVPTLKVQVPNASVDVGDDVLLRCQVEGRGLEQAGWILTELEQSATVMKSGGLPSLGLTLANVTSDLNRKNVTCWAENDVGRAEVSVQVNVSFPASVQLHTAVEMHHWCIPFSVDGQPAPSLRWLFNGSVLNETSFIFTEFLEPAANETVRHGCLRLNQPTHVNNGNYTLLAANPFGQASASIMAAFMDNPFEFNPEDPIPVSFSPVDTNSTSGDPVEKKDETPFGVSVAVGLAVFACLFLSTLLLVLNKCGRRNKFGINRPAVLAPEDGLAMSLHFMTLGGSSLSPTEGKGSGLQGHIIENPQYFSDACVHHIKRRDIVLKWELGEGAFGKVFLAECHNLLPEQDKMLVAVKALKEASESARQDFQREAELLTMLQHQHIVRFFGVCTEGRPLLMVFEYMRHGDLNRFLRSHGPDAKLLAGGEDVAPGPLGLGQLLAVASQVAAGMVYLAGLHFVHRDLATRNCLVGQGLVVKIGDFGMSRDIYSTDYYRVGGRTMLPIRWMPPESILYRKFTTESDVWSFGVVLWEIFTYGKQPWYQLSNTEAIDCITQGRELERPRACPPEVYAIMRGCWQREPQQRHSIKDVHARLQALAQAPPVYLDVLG
Chain of TYRO3/SKY (Q06418 41-890): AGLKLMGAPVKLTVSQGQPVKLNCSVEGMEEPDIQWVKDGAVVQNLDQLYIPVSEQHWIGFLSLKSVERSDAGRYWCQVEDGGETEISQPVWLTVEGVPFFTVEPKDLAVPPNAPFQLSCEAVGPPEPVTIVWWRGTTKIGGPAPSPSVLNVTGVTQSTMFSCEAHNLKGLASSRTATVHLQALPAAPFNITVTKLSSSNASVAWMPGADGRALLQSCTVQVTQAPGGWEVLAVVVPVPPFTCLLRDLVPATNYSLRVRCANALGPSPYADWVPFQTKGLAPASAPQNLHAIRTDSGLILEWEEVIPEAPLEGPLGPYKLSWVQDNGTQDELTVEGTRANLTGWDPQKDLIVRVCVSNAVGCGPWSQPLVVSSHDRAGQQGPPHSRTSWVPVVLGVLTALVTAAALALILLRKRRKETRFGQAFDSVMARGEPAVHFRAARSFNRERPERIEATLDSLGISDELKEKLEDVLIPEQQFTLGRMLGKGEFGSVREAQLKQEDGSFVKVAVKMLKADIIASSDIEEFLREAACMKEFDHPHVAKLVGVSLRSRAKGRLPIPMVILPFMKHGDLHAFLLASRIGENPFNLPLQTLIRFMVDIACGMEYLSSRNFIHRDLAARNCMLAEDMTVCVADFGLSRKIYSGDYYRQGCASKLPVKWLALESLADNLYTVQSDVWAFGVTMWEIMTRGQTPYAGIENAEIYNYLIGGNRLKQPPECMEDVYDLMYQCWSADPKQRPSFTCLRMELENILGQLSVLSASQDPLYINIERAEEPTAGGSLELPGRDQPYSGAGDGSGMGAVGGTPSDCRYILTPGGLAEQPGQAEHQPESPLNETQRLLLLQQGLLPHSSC
Chain of TRKC (Q16288 32-839, species assumed): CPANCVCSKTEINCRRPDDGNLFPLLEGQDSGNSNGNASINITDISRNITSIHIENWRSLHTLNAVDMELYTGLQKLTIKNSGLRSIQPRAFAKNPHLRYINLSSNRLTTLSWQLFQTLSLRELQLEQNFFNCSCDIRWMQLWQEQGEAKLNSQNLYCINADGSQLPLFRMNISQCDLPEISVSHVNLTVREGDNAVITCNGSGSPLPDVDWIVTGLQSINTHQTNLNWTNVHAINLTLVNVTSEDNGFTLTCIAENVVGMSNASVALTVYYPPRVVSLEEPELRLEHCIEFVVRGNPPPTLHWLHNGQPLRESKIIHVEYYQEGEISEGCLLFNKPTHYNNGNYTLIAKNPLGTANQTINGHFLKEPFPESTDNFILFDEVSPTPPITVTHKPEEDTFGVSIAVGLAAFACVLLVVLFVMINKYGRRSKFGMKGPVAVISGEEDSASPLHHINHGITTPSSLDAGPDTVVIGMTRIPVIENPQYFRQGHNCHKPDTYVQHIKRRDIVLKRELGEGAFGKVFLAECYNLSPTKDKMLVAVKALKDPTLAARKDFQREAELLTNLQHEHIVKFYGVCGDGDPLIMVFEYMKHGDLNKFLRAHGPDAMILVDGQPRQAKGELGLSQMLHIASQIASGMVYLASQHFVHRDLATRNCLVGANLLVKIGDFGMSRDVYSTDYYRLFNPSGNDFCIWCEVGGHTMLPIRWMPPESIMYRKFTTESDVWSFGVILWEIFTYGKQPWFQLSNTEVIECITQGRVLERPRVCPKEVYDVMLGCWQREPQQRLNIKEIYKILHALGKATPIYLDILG
Chain of IRR/INSRR (P14616 27-1297): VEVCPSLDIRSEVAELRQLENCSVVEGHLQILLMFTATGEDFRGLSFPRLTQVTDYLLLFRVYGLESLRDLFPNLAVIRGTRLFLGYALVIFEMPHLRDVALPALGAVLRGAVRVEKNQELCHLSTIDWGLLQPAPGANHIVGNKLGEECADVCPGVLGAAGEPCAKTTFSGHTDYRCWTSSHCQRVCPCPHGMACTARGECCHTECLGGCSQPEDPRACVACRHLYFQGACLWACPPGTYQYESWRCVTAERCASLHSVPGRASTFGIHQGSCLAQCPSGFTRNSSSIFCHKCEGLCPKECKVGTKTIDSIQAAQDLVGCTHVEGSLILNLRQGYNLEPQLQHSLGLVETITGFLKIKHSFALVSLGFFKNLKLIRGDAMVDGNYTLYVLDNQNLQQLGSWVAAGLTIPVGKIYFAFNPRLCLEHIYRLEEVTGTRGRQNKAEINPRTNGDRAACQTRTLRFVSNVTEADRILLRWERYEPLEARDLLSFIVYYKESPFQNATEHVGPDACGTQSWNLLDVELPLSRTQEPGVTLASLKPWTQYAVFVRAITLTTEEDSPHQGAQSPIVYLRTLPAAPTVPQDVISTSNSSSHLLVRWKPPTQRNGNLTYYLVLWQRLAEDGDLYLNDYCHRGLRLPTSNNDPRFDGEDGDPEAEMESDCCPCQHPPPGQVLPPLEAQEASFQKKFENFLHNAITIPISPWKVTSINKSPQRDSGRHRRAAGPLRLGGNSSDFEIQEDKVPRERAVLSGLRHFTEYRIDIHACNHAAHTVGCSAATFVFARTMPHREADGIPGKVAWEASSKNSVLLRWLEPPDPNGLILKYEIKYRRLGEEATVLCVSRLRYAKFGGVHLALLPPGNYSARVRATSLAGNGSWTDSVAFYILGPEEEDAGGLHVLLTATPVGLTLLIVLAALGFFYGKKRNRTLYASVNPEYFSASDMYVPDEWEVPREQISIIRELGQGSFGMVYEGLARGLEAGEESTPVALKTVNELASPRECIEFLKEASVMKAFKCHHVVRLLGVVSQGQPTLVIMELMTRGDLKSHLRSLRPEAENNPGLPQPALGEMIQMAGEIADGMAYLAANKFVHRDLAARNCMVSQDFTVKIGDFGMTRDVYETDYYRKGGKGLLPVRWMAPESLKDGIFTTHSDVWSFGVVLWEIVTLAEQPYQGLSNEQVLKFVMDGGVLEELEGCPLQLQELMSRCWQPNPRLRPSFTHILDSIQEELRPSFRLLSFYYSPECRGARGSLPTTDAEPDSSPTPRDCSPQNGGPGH
Chain of ASK1/MAP3K5 (Q99683 whole entry): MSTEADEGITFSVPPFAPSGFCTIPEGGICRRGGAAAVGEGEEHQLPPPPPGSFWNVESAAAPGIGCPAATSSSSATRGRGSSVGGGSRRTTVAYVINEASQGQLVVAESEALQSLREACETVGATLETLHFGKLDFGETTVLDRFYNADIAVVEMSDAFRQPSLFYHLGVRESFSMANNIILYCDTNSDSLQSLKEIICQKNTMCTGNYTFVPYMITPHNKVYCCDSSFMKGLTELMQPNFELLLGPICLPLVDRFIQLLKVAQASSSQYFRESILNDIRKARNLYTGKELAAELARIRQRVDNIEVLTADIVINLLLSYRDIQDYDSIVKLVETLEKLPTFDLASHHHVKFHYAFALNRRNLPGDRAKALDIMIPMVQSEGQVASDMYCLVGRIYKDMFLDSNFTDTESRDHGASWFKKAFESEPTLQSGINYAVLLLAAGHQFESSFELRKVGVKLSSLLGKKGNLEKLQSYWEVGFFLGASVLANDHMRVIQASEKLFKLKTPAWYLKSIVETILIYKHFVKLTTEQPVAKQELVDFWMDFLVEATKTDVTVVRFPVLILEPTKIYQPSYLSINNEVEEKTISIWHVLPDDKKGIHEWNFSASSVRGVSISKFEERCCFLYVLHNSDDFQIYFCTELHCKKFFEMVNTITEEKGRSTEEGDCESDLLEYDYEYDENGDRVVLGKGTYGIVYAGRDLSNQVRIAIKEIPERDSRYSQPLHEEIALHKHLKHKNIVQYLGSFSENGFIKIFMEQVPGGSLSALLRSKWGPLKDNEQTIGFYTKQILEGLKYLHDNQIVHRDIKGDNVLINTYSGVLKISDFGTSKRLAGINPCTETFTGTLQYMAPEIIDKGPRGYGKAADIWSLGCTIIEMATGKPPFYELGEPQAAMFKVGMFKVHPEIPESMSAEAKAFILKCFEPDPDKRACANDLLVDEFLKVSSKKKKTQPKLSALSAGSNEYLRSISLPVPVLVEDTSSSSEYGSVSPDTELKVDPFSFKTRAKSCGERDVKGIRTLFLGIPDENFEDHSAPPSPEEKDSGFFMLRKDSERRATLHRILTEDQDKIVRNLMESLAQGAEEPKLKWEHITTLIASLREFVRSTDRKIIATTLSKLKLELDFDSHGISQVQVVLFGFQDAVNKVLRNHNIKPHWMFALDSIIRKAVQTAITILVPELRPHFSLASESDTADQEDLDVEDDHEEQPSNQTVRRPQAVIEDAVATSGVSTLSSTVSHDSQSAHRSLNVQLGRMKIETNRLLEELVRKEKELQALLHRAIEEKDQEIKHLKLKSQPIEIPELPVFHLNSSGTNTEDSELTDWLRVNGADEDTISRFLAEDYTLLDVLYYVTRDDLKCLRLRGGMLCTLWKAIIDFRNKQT

inhibition at 0.05 µM (TYRO3/SKY; the first time): 41%
inhibition at 0.05 µM (TYRO3/SKY; the second time): 41.2%
inhibition at 0.05 µM (TRKA; the first time): 59.2%
inhibition at 0.05 µM (TRKA; the second time): 60.3%
inhibition at 0.05 µM (MER; the first time): 99.4%
inhibition at 0.05 µM (MER; the second time): 99.5%
inhibition at 0.05 µM (c-Src; the first time): 20%
inhibition at 0.05 µM (c-Src; the second time): 21%
inhibition at 0.05 µM (IRR/INSRR; the first time): 25.8%
inhibition at 0.05 µM (IRR/INSRR; the second time): 28.3%
inhibition at 0.05 µM (FGR; the first time): 41.2%
inhibition at 0.05 µM (FGR; the second time): 41.2%
inhibition at 0.05 µM (HIPK4; the first time): 77.2%
inhibition at 0.05 µM (HIPK4; the second time): 77.2%
inhibition at 0.05 µM (AXL; the first time): 94.6%
inhibition at 0.05 µM (AXL; the second time): 95.2%
IC50 [1]: 7.6 ± 0.3 nM
inhibition at 0.001 µM ([1]; 1 nM, read-out: AXL activity Inhibitory rate(%)): 20.7%
inhibition at 0.01 µM ([1]; 10 nM, read-out: AXL activity Inhibitory rate(%)): 61.2%
inhibition at 0.1 µM ([1]; 100 nM, read-out: AXL activity Inhibitory rate(%)): 80.7%
inhibition at 0.05 µM (c-MET; the first time): 98.6%
inhibition at 0.05 µM (c-MET; the second time): 99%
inhibition at 0.05 µM (TRKB; the first time): 52.1%
inhibition at 0.05 µM (TRKB; the second time): 52.2%
inhibition at 0.05 µM (LCK; the first time): 52.8%
inhibition at 0.05 µM (LCK; the second time): 53.1%
inhibition at 0.05 µM (FYN; the first time): 22.4%
inhibition at 0.05 µM (FYN; the second time): 27.7%
inhibition at 0.05 µM (DDR1; the first time): 64.1%
inhibition at 0.05 µM (DDR1; the second time): 64.2%
inhibition at 0.05 µM (ASK1/MAP3K5; the first time): 22.5%
inhibition at 0.05 µM (ASK1/MAP3K5; the second time): 23.5%
inhibition at 0.05 µM (TRKC; the first time): 23.8%
inhibition at 0.05 µM (TRKC; the second time): 24.1%
inhibition at 0.05 µM (MLK2/MAP3K10; the first time): 22.4%
inhibition at 0.05 µM (MLK2/MAP3K10; the second time): 23.9%
inhibition at 0.05 µM (BRK; the first time): 18.9%
inhibition at 0.05 µM (BRK; the second time): 19.4%
Compound: COCCOc1cc2ncnc(Oc3ccc(NC(=O)c4c5n(n(-c6ccc(F)cc6)c4=O)CCCC5)cc3F)c2cc1OCCOC [DC621044, N-(4-((6,7-bis(2-methoxyethoxy)quinazolin-4-yl)oxy)-3-fluorophenyl)-1-(4-fluorophenyl)-2-oxo-1,2,4,5,6,7-hexahydropyrazolo[1,5-a]pyridine-3-formamide]
BaF3/TEL-AXL proliferation Inhibitory rate (%) (BaF3/TEL-AXL cells; 1 nM, two values per compound, 0.001 µM): 64.2%
BaF3/TEL-AXL proliferation Inhibitory rate (%) (BaF3/TEL-AXL cells; 10 nM, two values per compound, 0.01 µM): 75.9%
BaF3/TEL-AXL proliferation Inhibitory rate (%) (BaF3/TEL-AXL cells; 100 nM, two values per compound, 0.1 µM): 88.2%
inhibition at 0.001 µM (BaF3/TEL-AXL cells; BaF3/TEL-AXL, 1 nM, two values per compound, read-out: BaF3/TEL-AXL proliferation Inhibitory rate (%)): 78.9%
inhibition at 0.01 µM (BaF3/TEL-AXL cells; BaF3/TEL-AXL, 10 nM, two values per compound, read-out: BaF3/TEL-AXL proliferation Inhibitory rate (%)): 79.8%
inhibition at 0.1 µM (BaF3/TEL-AXL cells; BaF3/TEL-AXL, 100 nM, two values per compound, read-out: BaF3/TEL-AXL proliferation Inhibitory rate (%)): 85.9%
inhibition at 0.001 µM (BaF3/TEL-AXL cells; BaF3/TEL-AXL, concentration of 1 nM, read-out: inhibited the proliferation of BaF3/TEL-AXL cells): > 70%
